Test results reported in patent US20260241013A1, “TARGETED PROTEIN DEGRADATION USING PRODRUGS OF BIFUNCTIONAL COMPOUNDS THAT BIND UBIQUITIN LIGASE AND A TARGET MCL-1 PROTEIN” (Captor Therapeutics S.A., priority 2022, published 2026).
Like-named read-outs stand apart in the source and are kept apart here.

Legend:
Format in all cases: cell-based
[1] = molecular target: T1, MCL-1 protein (Homo sapiens, UniProt Q07820); assay: MCL-1 protein degradation in MV4-11 cells, Western blot; settings: 6 hours; for MCL-1 protein abundance: MV4-11, % of DMSO control; for MCL-1 protein degradation (Western blot, in words): MV4-11 cells
T1 construct: endogenous in cells; host or cells: MV4-11
Experimental: MV4-11 cells were maintained in IMDM medium, supplemented with penicillin/streptomycin and 10% Fetal Bovine Serum (FBS). MV4-11 cells were collected, centrifuged (250 rcf, 5 min), resuspended in a growth medium containing 10% FBS and counted. The cell suspension was then adjusted to 1×10^6 cells/ml using a growth medium containing 10% FBS. Afterwards, 0.5×10^6 cells were seeded on 24-well plates in 0.5 mL of medium per well. Immediately after seeding, cells were pre-treated for 30 minutes with DMSO or pan-caspase inhibitor—Q-VD-Oph. Next, compounds from stocks pre-diluted in DMSO were added directly to the cell culture medium in appropriate concentrations (the final DMSO concentration was 0.5%). Following the 6 hours treatment with the compounds, cells were collected from the plates and suspended in a lysis buffer (2% SDS, 50 mM Tris, pH 8.0, 100 U/ml Pierce Universal Nuclease for Cell Lysis, complete EDTA-free Protease Inhibitor Cocktail) and incubated on ice for 45 min. The amount of protein was determined via BCA assay, and an equal quantity of each sample was loaded on the precast gel for protein separation. After the antibody staining for MCL-1, α-tubulin, and cleaved forms of PARP and caspase 3, the membranes were washed and signals developed.
Densitometric values for MCL-1 were normalized to total protein level (stain-free membrane). [%] of protein reduction is calculated in comparison to the cells treated with DMSO, which stand for 0%.

[2] = Cell viability assay (CellTiter-Glo, CTG protocol), ARH-77; settings: human, ARH-77 cells (lymphoblast-like), ARH-77 (MCL-1 independent line), 24 hours incubation, 1% FBS, read-out: Average pCC50 by molecule ARH-77 (converted)
Text: (§1) The effect of various compounds of the invention on the viability of MV4-11 and ARH-77 cell lines was investigated, using the CTG protocol described below.
(§2) MV4-11 cell lines are derived from acute myeloid leukaemia and it is described in the literature as a MCL-1 dependent cell line, as opposed to lymphoblast-like ARH-77 cell line, which is described as independent of MCL-1 (Tron A E et al. Nat Commun. 2018; 9: 5341; Caenepeel S et al. Cancer Discov. 2018 December; 8(12): 1582-1597).
(§3) Cells (MV4-11 or ARH-77) were seeded on […] in a growth medium with 1% FBS. Next, compound stocks were pre-diluted in DMSO and added directly to the cell culture media (final DMSO concentration: 0.5%). Compound concentrations used in this assay: 1/3 dilutions starting at 30 μM (9 to 12 points). After 24 hours of incubation, cell viability was evaluated using CellTiter-Gob® Luminescent Cell Viability Assay (Promega, cat #G7572). The luminescence signal was measured using a CLARIOstar Plus Multi-Mode Microplate Reader (574-590 nm).
(§4) Results were normalized to DMSO control. Collected data were analyzed using GraphPad Prism to calculate pCC50 values (i.e. the negative log of the CC50 value). CC50 (50% cytotoxic concentration) is the effective concentration of a cytotoxic compound, which produces 50% of the maximum possible cell death (i.e. the concentration of the compound which is required in order to reduce cell viability by 50%). CC50 is often used rather than IC50 in cell toxicity assays.

[3] = test system: MV4-11 cells; assay: Cell viability assay (CellTiter-Glo, CTG protocol), MV4-11; settings: Homo sapiens, MV4-11 (MCL-1 dependent AML line), 24 hours incubation, 1% FBS, read-out: Average pCC50 by molecule MV4-11 (converted)
Text: as §1, §2, §3, §4

[4] = molecular target: T2, CRBN (Homo sapiens, UniProt Q96SW2); assay: NanoBRET In-cell CRBN Target Engagement Assay (live and lytic mode), NanoLuc CRBN HEK293 cells
T2 construct: host or cells: HEK293 (NanoLuc CRBN HEK293 cells)
Experimental: Commercially available, NanoBRET In-cell CRBN Target Engagement Assay (NanoBRET CRBN TE Assay), which uses NanoLuc CRBN HEK293 cells and NanoBRET In-cell CRBN Tracer was used (N2910, N2912, PROMEGA) to determine the cell membrane permeability of prodrugs of MCL-1 degraders.
The assay was run in 96-well plate format (cat. 3600, Corning). NanoLuc CRBN HEK293 cells were treated with CRBN Tracer and compounds. Briefly, prepared was cell suspension (0.17×10^6cells/ml) in Opti-MEM without phenol red (Life Technologies). The cells were treated with CRBN Tracer (20× concentrated, 5 μl/well. For the live mode: 0.8 μM and for the lytic: 0.17 μM final concentration) or DMSO vehicle control (20× concentrated, 5 μl/well). Such prepared cells were seeded into the wells of 96-well plate on top of compounds (100× concentrated, 1 μl/well; 11-point 2-fold dilution) pre-plated on them with the help of Echo 555 acoustic dispenser (Labcyte). For the lytic mode assay, Digitonin (0.05 mg/ml, 10× concentrated, 10 μl/well) was added additionally. In the live mode assay, the plate was incubated at 37° C., 5% CO2 for 2 hours, and then at room temperature for 15 minutes to cool down. In the lytic mode assay, there was no incubation. The 3×Complete NanoBRET reagent (50 μl/well) was prepared according to the manufacturer's recommendations, appropriately for live and lytic mode. The plate was incubated for 2 minutes at room temperature and the luminescence and fluorescence readings followed using CLARIOstar Multimode Plate Reader (donor emission RLU—450 nm; acceptor emission RFU—610 nm). RBA value is an indicator of cell membrane permeability (the lower, the better) is calculated from absolute pIC50 (the negative log of the absolute IC50 value when converted to molar) of the live mode assay (pIC50 Live) and the lytic mode assay (pIC50 Lytic).

[5] = 1 nM, + Q-VD-Oph (pan-caspase inhibitor)
[6] = 10 nM, + Q-VD-Oph (pan-caspase inhibitor)
[7] = 100 nM, + Q-VD-Oph (pan-caspase inhibitor)
[8] = live mode, intact cells, 2 hours at 37° C., read-out: pIC50 (live) (converted)
[9] = lytic mode, digitonin-lysed cells, no incubation, read-out: pIC50 (lytic) (converted)

T2 sequence (Q96SW2 whole entry): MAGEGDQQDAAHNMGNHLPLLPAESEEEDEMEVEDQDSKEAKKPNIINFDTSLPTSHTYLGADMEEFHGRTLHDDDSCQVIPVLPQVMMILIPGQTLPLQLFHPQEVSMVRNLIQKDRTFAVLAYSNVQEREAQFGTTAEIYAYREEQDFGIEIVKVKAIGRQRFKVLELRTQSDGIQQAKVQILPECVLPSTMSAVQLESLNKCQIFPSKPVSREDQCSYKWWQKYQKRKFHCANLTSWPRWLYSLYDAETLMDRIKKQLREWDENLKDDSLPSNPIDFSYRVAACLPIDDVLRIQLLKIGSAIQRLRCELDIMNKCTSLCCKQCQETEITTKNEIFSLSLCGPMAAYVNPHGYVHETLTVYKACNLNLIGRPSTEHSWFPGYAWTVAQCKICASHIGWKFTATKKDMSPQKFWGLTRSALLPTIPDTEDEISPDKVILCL
T1 sequence (Q07820 whole entry): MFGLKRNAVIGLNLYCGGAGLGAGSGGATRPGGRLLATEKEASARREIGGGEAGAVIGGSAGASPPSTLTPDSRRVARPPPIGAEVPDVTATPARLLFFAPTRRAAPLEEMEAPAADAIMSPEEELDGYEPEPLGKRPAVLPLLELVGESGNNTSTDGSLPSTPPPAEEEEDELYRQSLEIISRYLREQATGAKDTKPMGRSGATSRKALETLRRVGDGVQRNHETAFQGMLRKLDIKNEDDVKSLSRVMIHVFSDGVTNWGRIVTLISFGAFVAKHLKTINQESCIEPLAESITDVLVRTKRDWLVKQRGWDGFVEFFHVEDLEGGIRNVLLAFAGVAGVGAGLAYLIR

| IC50 [4, 8] [nM] | IC50 [4, 9] [nM] | MCL-1 protein degradation (Western blot, in words) ([1]; apoptosis not blocked) | SMILES | MCL-1 protein abundance [1, 5] | MCL-1 protein abundance [1, 6] | MCL-1 protein abundance [1, 7] | MCL-1 protein degradation (Western blot, in words) ([1]; in the presence of apoptosis inhibitor) | CC50 at 24 h [2] [nM] | CC50 [3] [nM] | MCL-1 protein abundance ([1]; 1 nM, without Q-VD-Oph) | MCL-1 protein abundance ([1]; 10 nM, without Q-VD-Oph) | MCL-1 protein abundance ([1]; 100 nM, without Q-VD-Oph) |
| --- | --- | --- | --- | --- | --- | --- | --- | --- | --- | --- | --- | --- |
| 39.8 | 6310 | MCL-1 protein degradation | Cc1nn(C)c(C)c1-c1c(Cl)ccc2c(CCCOc3cccc4cc(F)ccc34)c(C(=O)OCOC(=O)C(C)(C)C)n(CCN3CCN(C(=O)COc4cccc5c4CN(C4CCC(=O)NC4=O)C5=O)CC3)c12 (stereo not drawn) [Compound 69, (6-Chloro-1-{2-[4-(2-{[2-(2,6-dioxopiperidin-3-yl)-1-oxo-2,3-dihydro-1H-isoindol-4-yl]oxy}acetyl)piperazin-1-yl]ethyl}-3-{3-[(6-fluoronaphthalen-1-yl)oxy]propyl}-7-(1,3,5-trimethyl-1H-pyrazol-4-yl)-1H-indole-2-carbonyloxy)methyl 2,2-dimethylpropanoate] | C (Amount of MCL-1 protein >50% and <75% calculated as % of DMSO control) | B (Amount of MCL-1 protein >25% and ≤50% calculated as % of DMSO control) | B (Amount of MCL-1 protein >25% and ≤50% calculated as % of DMSO control) |  | > 31600 | < 10 | C (Amount of MCL-1 protein >50% and <75% calculated as % of DMSO control) | B (Amount of MCL-1 protein >25% and ≤50% calculated as % of DMSO control) | A (Amount of MCL-1 protein ≤25% calculated as % of DMSO control) |
| 12.6 | 316 |  | Cc1nn(C)c(C)c1-c1c(Cl)ccc2c(CCCOc3cccc4cc(F)ccc34)c(C(=O)OCOC(=O)C(C)(C)C)n(CCN3CCN(C(=O)COc4ccc5c(c4)n(C)c(=O)n5C4CCC(=O)NC4=O)CC3)c12 (stereo not drawn) [Compound 74, (Pivaloyloxy)methyl 6-chloro-1-(2-(4-(2-((1-(2,6-dioxopiperidin-3-yl)-3-methyl-2-oxo-2,3-dihydro-1H-benzo[d]imidazol-5-yl)oxy)acetyl)piperazin-1-yl)ethyl)-3-(3-((6-fluoronaphthalen-1-yl)oxy)propyl)-7-(1,3,5-trimethyl-1H-pyrazol-4-yl)-1H-indole-2-carboxylate] |  |  |  |  | > 1000 | < 3.16 |  |  |  |
| 63.1 | 794 |  | CCOCCOCCOC(=O)OC(C)OC(=O)c1c(CCCOc2cccc3cc(F)ccc23)c2ccc(Cl)c(-c3c(C)nn(C)c3C)c2n1CCN1CCN(C(=O)COc2cccc3c2CN(C2CCC(=O)NC2=O)C3=O)CC1 (stereo not drawn) [Compound 101, 4-Oxo-3,5,8,11-tetraoxatridecan-2-yl 6-chloro-1-(2-(4-(2-((2-(2,6-dioxopiperidin-3-yl)-1-oxoisoindolin-4-yl)oxy)acetyl)piperazin-1-yl)ethyl)-3-(3-((6-fluoronaphthalen-1-yl)oxy)propyl)-7-(1,3,5-trimethyl-1H-pyrazol-4-yl)-1H-indole-2-carboxylate] |  |  |  |  | > 31600 | < 31.6 |  |  |  |

| SMILES | IC50 [4, 8] [nM] | IC50 [4, 9] [nM] | MCL-1 protein degradation (Western blot, in words) ([1]; apoptosis not blocked) | MCL-1 protein abundance [1, 5] | MCL-1 protein abundance [1, 6] | MCL-1 protein abundance [1, 7] | MCL-1 protein degradation (Western blot, in words) ([1]; in the presence of apoptosis inhibitor) | CC50 at 24 h [2] [nM] | CC50 [3] [nM] | MCL-1 protein abundance ([1]; 1 nM, without Q-VD-Oph) | MCL-1 protein abundance ([1]; 10 nM, without Q-VD-Oph) | MCL-1 protein abundance ([1]; 100 nM, without Q-VD-Oph) |
| --- | --- | --- | --- | --- | --- | --- | --- | --- | --- | --- | --- | --- |
| CC(=O)OCOC(=O)c1c(CCCOc2cccc3cc(F)ccc23)c2ccc(Cl)c(-c3c(C)nn(C)c3C)c2n1CCN1CCN(C(=O)COc2cccc3c2CN(C2CCC(=O)NC2=O)C3=O)CC1 (stereo not drawn) [Compound 41, Acetoxymethyl 6-chloro-1-(2-(4-(2-((2-(2,6-dioxopiperidin-3-yl)-1-oxoisoindolin-4-yl)oxy)acetyl)piperazin-1-yl)ethyl)-3-(3-((6-fluoronaphthalen-1-yl)oxy)propyl)-7-(1,3,5-trimethyl-1H-pyrazol-4-yl)-1H-indole-2-carboxylate] | 7.94 | 501 |  | B (Amount of MCL-1 protein >25% and ≤50% calculated as % of DMSO control) | A (Amount of MCL-1 protein ≤25% calculated as % of DMSO control) | A (Amount of MCL-1 protein ≤25% calculated as % of DMSO control) | MCL-1 protein degradation | > 10000 | < 1 |  |  |  |
